Laboratory results: patent US20210317077A1, “Crystalline Forms of N1-(1-Cyanocycloproply)-N2-((1S)-1-{4'-[(1R-2,2-Difluoro-1-Hydroxyethyl]Biphenyl-4-YL}-2,2,2-Trifluoroethyl)-4-Fluoro-L-Leucinamide” (Intervet Inc., priority 2018, published 2021)

Experiments:
[1] = Form A: temperature range where Form B is stable; Form B: process solvent above 50° C., few hours, no Form A seeds
[2] = Method: The Form B crystals were added to the SLS and PVP to form a slurry. […] FIG. 9 depicts complimentary in situ process analytical data from Raman spectroscopy (on solute concentration and solid phase composition) and Focused Beam Reflectance Measurement (FBRM characterizing number and dimension of the dispersed particles).
[3] = competitive slurry in ethanol/water at 25, 30, 35 and 40° C.; enantiotropically related forms
Method: Competitive slurry experiments of Forms A and B in ethanol/water at 25° C., 30° C., 35° C. and 40° C. were used to establish the transition temperature of the enantiotropic forms.

| SMILES | form conversion during API process and DP processing timeframes [1] | relative solubility of the forms (Raman solute signal) ([2]; 80° C., slurry in aqueous SLS and PVP) | temperature at which the form is the more stable form [3] [°C] | time for conversion of most Form B crystals to Form A crystals ([2]; 80° C., slurry in aqueous SLS and PVP, after introduction of Form A crystal seeds) [h] | Form A detected before seeding ([2]; Form B slurry in aqueous SLS and PVP raised to 80° C., before Form A seeds) |
| --- | --- | --- | --- | --- | --- |
| CC(C)(F)C[C@H](N[C@@H](c1ccc(-c2ccc([C@@H](O)C(F)F)cc2)cc1)C(F)(F)F)C(=O)NC1(C#N)CC1 [Form A] | does not convert to Form B | lower solubility | ≥ 40 |  |  |
| CC(C)(F)C[C@H](N[C@@H](c1ccc(-c2ccc([C@@H](O)C(F)F)cc2)cc1)C(F)(F)F)C(=O)NC1(C#N)CC1 [Form B] | converts to Form A |  | ≤ 30 | ≤ 2 | no Form A detected |
